System: production of TNF by monocytes activated with bacterial lipopolysaccharide (LPS)
Assay: Lipopolysaccharide-activated monocyte TNF production assay
Assay type: cell-based
Details: Homo sapiens, read-out: IC50 values in the monocyte assay (LPS induced TNF release)
Description: Lipopolysaccharide-Activated Monocyte TNF Production Assay
Test compounds were evaluated in vitro for the ability to inhibit the production of TNF by monocytes activated with bacterial lipopolysaccharide (LPS). Fresh residual source leukocytes (a byproduct of plateletpheresis) were obtained from a local blood bank, and peripheral blood mononuclear cells (PBMCs) were isolated by density gradient centrifugation on Ficol-Paque Plus (Pharmacia). PBMCs were suspended at 2×10^6/ml in DMEM supplemented to contain 2% FCS, 10 mM, 0.3 mg/ml […], 100 U/ml penicillin G and […] streptomycin sulfate (complete media). Cells were plated into Falcon flat bottom, 96 well culture plates (200 μl/well) and cultured overnight at 37° C. and 6% CO2. Non-adherent cells were removed by washing with 200 μl/well of fresh medium. Wells containing adherent cells (˜70% monocytes) were replenished with 100 μl of fresh medium.
Preparation of Test Compound Stock Solutions
Test compounds were dissolved in […]. Compound stock solutions were prepared to an initial concentration of […]. Stocks were diluted initially to 20-200 μM in complete media. Nine two-fold serial dilutions of each compound were then prepared in complete medium.
Treatment of Cells with Test Compounds and Activation of TNF Production with Lipopolysaccharide
One hundred microliters of each test compound dilution were added to microtiter wells containing adherent monocytes and 100 μl complete medium. Monocytes were cultured with test compounds for 60 min at which time 25 μl of complete medium containing 30 ng/ml lipopolysaccharide from E. coli K532 were added to each well. Cells were cultured an additional 4 hrs. Culture supernatants were then removed and TNF presence in the supernatants was quantified using an ELISA.
Flat bottom, 96 well Corning High Binding ELISA plates were coated overnight (4° C.) with 150 μL/well of 3 μg/ml murine anti-human TNF-α MAb (R&D Systems #MAB210). Wells were then blocked for 1 hr at room temperature with 200 μL/well of CaCl2-free ELISA buffer supplemented to contain 20 mg/ml BSA (standard ELISA buffer: […], 150 mM NaCl, 2 mM CaCl2, 0.15 mM thimerosal, pH 7.4). Plates were washed and replenished with 100 μl of test supernatants (diluted 1:3) or standards. Standards consisted of eleven 1.5-fold serial dilutions from a stock of 1 ng/ml recombinant human TNF (R&D Systems). Plates were incubated at room temperature for 1 hr on orbital shaker (300 rpm), washed and replenished with 100 μl/well of 0.5 ug/ml goat anti-human TNF-α (R&D systems #AB-210-NA) biotinylated at a 4:1 ratio. Plates were incubated for 40 min, washed and replenished with 100 μl/well of alkaline phosphatase-conjugated streptavidin (Jackson ImmunoResearch #016-050-084) at 0.02 ug/ml. Plates were incubated 30 min, washed and replenished with 200 μl/well of 1 mg/ml of p-nitrophenyl phosphate. After 30 min, plates were read at 405 nm on a Vmax plate reader.
Standard curve data were fit to a second order polynomial and unknown TNF-α concentrations determined from their OD by solving this equation for concentration. TNF concentrations were then plotted vs. test compound concentration using a second order polynomial. This equation was then used to calculate the concentration of test compounds causing a 50% reduction in TNF production.

Q: For `COc1ccc(NC(=O)c2ccc(C)c(-c3ccc4nc(N)ncc4c3)c2)cc1C(F)(F)F` [Example 119, 3-(2-amino-6-quinazolinyl)-4-methyl-N-(4-(methyloxy)-3-(trifluoromethyl)phenyl)benzamide], which IC50 is on record?
A: ≤ 25 µM

Q: Which IC50 does the source give for `Cc1ccc(C(=O)Nc2cccc(Cl)c2Cl)cc1-c1ccc2nc(N)ncc2c1` [Example 232, 3-(2-amino-6-quinazolinyl)-N-(2,3-dichlorophenyl)-4-methylbenzamide] here?
A: ≤ 25 µM

Q: `Cc1ccc(C(=O)Nc2ncc(Cl)cc2Cl)cc1-c1ccc2nc(N)ncc2c1` [Example 346, 3-(2-amino-6-quinazolinyl)-N-(3,5-dichloro-2-pyridinyl)-4-methylbenzamide] was tested. Which IC50 did it give?
A: ≤ 25 µM

Q: `Cc1ccc(C(=O)NC2CC2)cc1-c1ccc2nc(N)ncc2c1` [Example 40, 3-(2-amino-6-quinazolinyl)-N-cyclopropyl-4-methylbenzamide] was tested. Which IC50 did it give?
A: ≤ 25 µM

Q: Which IC50 does the source give for `CN(C)[C@@H]1CCN(c2ccc(C(F)(F)F)cc2NC(=O)c2cc(-c3ccc4nc(N)ncc4c3)ccc2F)C1` [Example 422, 5-(2-amino-6-quinazolinyl)-N-(2-((3R)-3-(dimethylamino)-1-pyrrolidinyl)-5-(trifluoromethyl)phenyl)-2-fluorobenzamide] here?
A: ≤ 25 µM

Q: `COc1cccc(NC(=O)c2ccc(C)c(-c3ccc4nc(N)ncc4c3)c2)c1OC` [Example 283, 3-(2-amino-6-quinazolinyl)-N-(5,6-bis(methyloxy)-phenyl)-4-methylbenzamide] was tested. Which IC50 did it give?
A: ≤ 25 µM

Q: `CNc1ncc2cc(-c3ccc(F)c(C(=O)Nc4cc(C(F)(F)F)ccc4N(C)CCCN(C)C)c3)ccc2n1` [Example 9, N-(2-((3-(dimethylamino)propyl)(methyl)amino)-5-(trifluoromethyl)phenyl)-2-fluoro-5-(2-(methylamino)-6-quinazolinyl)benzamide] was tested. Which IC50 did it give?
A: ≤ 25 µM

Q: With `Cc1c(NC(=O)c2cc(C(F)(F)F)ccc2F)cccc1-c1ccc2nc(N)ncc2c1` [Example 222, N-(3-(2-amino-6-quinazolinyl)-2-methylphenyl)-2-fluoro-5-(trifluoromethyl) benzamide] as the compound, how does the IC50 read?
A: ≤ 25 µM

Q: How did the IC50 turn out when `Cc1ccc(C(=O)Nc2cccc(C(F)(F)F)c2F)cc1-c1ccc2nc(NCCCN3CCOCC3)ncc2c1` [Example 23, N-(2-fluoro-3-(trifluoromethyl)phenyl)-4-methyl-3-(2-((3-(4-morpholinyl)propyl)amino)-6-quinazolinyl) benzamide] was run?
A: ≤ 25 µM

Q: `Cc1ccc(C(=O)Nc2cccc(C#N)c2)cc1-c1ccc2nc(N)ncc2c1` [Example 429, 3-(2-amino-6-quinazolinyl)-N-(3-cyanophenyl)-4-methylbenzamide] was tested. Which IC50 did it give?
A: ≤ 25 µM

Q: For `Nc1ncc2cc(-c3cc(C(=O)Nc4cc(C(F)(F)F)ccc4N4CCCC4)ccc3Cl)ccc2n1` [Example 155, 3-(2-amino-6-quinazolinyl)-4-chloro-N-(2-(1-pyrrolidinyl)-5-(trifluoromethyl)phenyl)benzamide], which IC50 is on record?
A: ≤ 25 µM

Q: How did the IC50 turn out when `Cc1ccc(C(=O)Nc2cc(C(F)(F)F)ccc2N2CCN(C)CC2)cc1-c1ccc2nc(N)ncc2c1` [Example 74, 3-(2-amino-6-quinazolinyl)-4-methyl-N-(2-(4-methyl-1-piperazinyl)-5-(trifluoromethyl)phenyl)benzamide] was run?
A: ≤ 25 µM

Q: How did the IC50 turn out when `Cc1ccc(NC(=O)c2ccc(C)c(-c3ccc4nc(N)ncc4c3)c2)cc1NC(=O)CN1CCOCC1` [Example 62, 3-(2-amino-6-quinazolinyl)-4-methyl-N-(4-methyl-3-((4-morpholinylacetyl)amino)phenyl) benzamide] was run?
A: ≤ 25 µM

Q: With `Cc1ccc(C(=O)Nc2cccc(C(F)(F)F)c2C)cc1-c1ccc2nc(N)ncc2c1` [Example 369, 3-(2-amino-6-quinazolinyl)-4-methyl-N-(2-methyl-3-(trifluoromethyl)phenyl)benzamide] as the compound, how does the IC50 read?
A: ≤ 25 µM

Q: With `Cc1ccc(NC(=O)c2cccc(C(C)C)c2)cc1-c1ccc2nc(N)ncc2c1` [Example 432, N-(3-(2-aminoquinazolin-6-yl)-4-methylphenyl)-3-isopropylbenzamide] as the compound, how does the IC50 read?
A: ≤ 25 µM

Q: With `CNc1ncc2cc(-c3cc(C(=O)Nc4cccc(C(F)(F)F)c4C)ccc3C)ccc2n1` [Example 11, 4-methyl-3-(2-(methylamino)-6-quinazolinyl)-N-(2-methyl-3-(trifluoromethyl)phenyl)benzamide] as the compound, how does the IC50 read?
A: ≤ 25 µM

Q: Which IC50 does the source give for `Cc1ccc(C(=O)Nc2cc(C(F)(F)F)ccc2N2CC[C@@H](N(C)C)C2)cc1-c1ccc2nc(N)ncc2c1` [Example 75, 3-(2-amino-6-quinazolinyl)-N-(2-((3R)-3-(dimethylamino)-1-pyrrolidinyl)-5-(trifluoromethyl)phenyl)-4-methylbenzamide] here?
A: ≤ 25 µM

Q: With `Nc1ncc2cc(-c3cc(NC(=O)c4cccc(C(F)(F)F)c4)ccc3C(F)(F)F)ccc2n1` [Example 196] as the compound, how does the IC50 read?
A: ≤ 25 µM

Q: With `CNc1ncc2cc(-c3cc(C(=O)Nc4ccc(Cl)c(C(F)(F)F)c4C)ccc3C)ccc2n1` [Example 3, N-(4-chloro-2-methyl-3-(trifluoromethyl)phenyl)-4-methyl-3-(2-(methylamino)-quinazolinyl)benzamide] as the compound, how does the IC50 read?
A: ≤ 25 µM

Q: How did the IC50 turn out when `CNc1ncc2cc(-c3cccc(NC(=O)c4cc(C(F)(F)F)cc(C(F)(F)F)c4)c3C)cnc2n1` [Example 221] was run?
A: ≤ 25 µM

Q: For `Nc1ncc2cc(-c3ccc(F)c(NC(=O)c4ccccc4)c3)ccc2n1` [Example 485, N-(5-(2-amino-6-quinazolinyl)-2-fluorophenyl)benzamide], which IC50 is on record?
A: ≤ 25 µM

Q: With `Cc1ccc(C(=O)Nc2cccc(C(F)(F)F)c2C)cc1-c1ccc2nc(NCCCN3CCOCC3)ncc2c1` [Example 32, 4-methyl-N-(2-methyl-3-(trifluoromethyl)phenyl)-3-(2-((3-(4-morpholinyl)propyl)amino)-6-quinazolinyl) benzamide] as the compound, how does the IC50 read?
A: ≤ 25 µM

Q: How did the IC50 turn out when `Cc1ccc(C(=O)Nc2ccc(OC3CCN(C)CC3)c(C(F)(F)F)c2)cc1-c1ccc2nc(N)ncc2c1` [Example 123, 3-(2-amino-6-quinazolinyl)-4-methyl-N-(4-((1-methyl-4-piperidinyl)oxy)-3-(trifluoromethyl)phenyl)benzamide] was run?
A: ≤ 25 µM

Q: With `Cc1ccc(C(=O)Nc2ncccc2O)cc1-c1ccc2nc(N)ncc2c1` [Example 361, 3-(2-amino-6-quinazolinyl)-N-(3-hydroxy-2-pyridinyl)-4-methylbenzamide] as the compound, how does the IC50 read?
A: ≤ 25 µM

Q: For `Cc1cccc(C)c1-c1ccc2nc(N)ncc2c1` [Example 535, 6-(2,6-dimethylphenyl)-2-quinazolinamine], which IC50 is on record?
A: ≤ 25 µM

Q: For `Nc1ncc2cc(-c3cc(NC(=O)c4cccc(C(F)(F)F)c4F)ccc3Cl)ccc2n1` [Example 481, N-(3-(2-amino-6-quinazolinyl)-4-chlorophenyl)-2-fluoro-3-(trifluoromethyl)benzamide], which IC50 is on record?
A: ≤ 25 µM

Q: With `CNc1ncc2cc(-c3cc(NC(=O)c4cc(C(F)(F)F)cc(C(F)(F)F)c4)ccc3C)cnc2n1` [Example 200, N-(4-methyl-3-(2-(methylamino)pyrido[2,3-d]pyrimidin-6-yl)phenyl)-3,5-bis(trifluoromethyl)benzamide] as the compound, how does the IC50 read?
A: ≤ 25 µM

Q: For `Cc1ccc(C(=O)Nc2ncccc2OCc2ccccc2)cc1-c1ccc2nc(N)ncc2c1` [Example 358, 3-(2-amino-6-quinazolinyl)-4-methyl-N-(3-((phenylmethyl)oxy)-2-pyridinyl)benzamide], which IC50 is on record?
A: ≤ 25 µM

Q: `CC(C)(C)c1ccc(C(=O)Nc2cc(-c3ccc4nc(N)ncc4c3)ccc2F)cc1` [Example 488, N-(5-(2-amino-6-quinazolinyl)-2-fluorophenyl)-4-(1,1-dimethylethyl)benzamide] was tested. Which IC50 did it give?
A: ≤ 25 µM

Q: `Cc1ccc(C(=O)Nc2cccc3ncccc23)cc1-c1ccc2nc(N)ncc2c1` [Example 281, 3-(2-amino-6-quinazolinyl)-4-methyl-N-(5-quinolinyl)benzamide] was tested. Which IC50 did it give?
A: ≤ 25 µM

Q: With `Cc1ccc(C(=O)Oc2c(F)c(F)c(F)c(F)c2F)cc1-c1ccc2nc(N)ncc2c1` [Example 423, Perfluorophenyl-3-(2-aminoquinazolin-6-yl)-4-methylbenzoate] as the compound, how does the IC50 read?
A: ≤ 25 µM

Q: How did the IC50 turn out when `Cc1ccc(C(=O)Nc2cc(CN3CCN(C)CC3)cc(C(F)(F)F)c2)cc1-c1ccc2nc(N)ncc2c1` [Example 159, 3-(2-amino-6-quinazolinyl)-4-methyl-N-(3-((4-methyl-1-piperazinyl)methyl)-5-(trifluoromethyl)phenyl)benzamide] was run?
A: ≤ 25 µM

From patent US20070054916A1, “Aryl nitrogen-containing bicyclic compounds and methods of use” (Amgen Inc., priority 2004, published 2007)
